# Literature values as cited in US20250230139A1, “Novel Process and Intermediate for the Preparation of Apalutamide” (BDR Lifesciences Private Limited, priority 2022, published 2025).
# Columns and labels:
# [1] = strong base (pH>11)
# [2] = acidic carboxamide moiety
# [3] = powder
# prostate cancer = conditions: mouse xenograft models of prostate cancer
smiles,measurement,setting,value
"CNC(=O)c1ccc(N2C(=S)N(c3cnc(C#N)c(C(F)(F)F)c3)C(=O)C23CCC3)cc1F [Apalutamide, 4-[7-[6-cyano-5-(trifluoromethyl)pyridin-3-yl]-8-oxo-6-thioxo-5,7-diazaspiro[3.4]octan-5-yl]-2-fluoro-N-methylbenzamide]",stability to strong base,[1],unstable
same,dissociation constant pKa,[2],9.7
same,solubility in aqueous media,aqueous media over a wide range of pH values,practically insoluble
same,solubility in organic solvents,organic solvents,practically insoluble to very soluble
same,hygroscopicity,[3],non-hygroscopic
same,apoptosis,prostate cancer,increased apoptosis
same,tumor cell proliferation,prostate cancer,decreased tumor cell proliferation
same,tumor volume,prostate cancer,decreased tumor volume
